According to patent publication US9545411B2, “Methods and compositions for treating progesterone-dependent conditions” (REPROS THERAPEUTICS INC., priority 2012, dated 2017):

What was measured:
[1] = Pharmacokinetic studies in clinical trial subjects after oral CDB-4124; format: in vivo, human; conditions: for maximum concentration for the 12.5 mg dose as percentage of the 50 mg dose: oral CDB-4124
Description: (§1) The maximum concentrations of CDB-4124 and its mono-demethylated metabolite (CDB-4453) for the 12.5 mg dose were 25% of the 50 mg dose. All liver toxicities resolved in those women that returned for safety follow-ups, including those subjects that developed liver-associated serious adverse effects (SAEs).
Pharmacokinetic studies performed on participating subjects detected a high Cmax and a Tmax at 1-2 hours following administration. Large quantities of the monodemethylated metabolite of CDB-4124 were also detected, clearly indicating first pass metabolism of the antiprogestin. […] Metabolism of CDB-4124 by the liver provides the opportunity for liver damage and greatly reduces the concentration of the antiprogestin before it reaches the systemic circulation. Thus, alternative routes of administration of antiprogestins that avoid first pass metabolism such as, without limitation, intravenous, intramuscular, and sublingual, should allow antiprogestins to be absorbed directly into the systemic circulation and thereby provide a method for treating progesterone-dependent conditions while avoiding liver toxicity. Administration routes which avoid first pass metabolism may also require less drug per dose to achieve the same therapeutic benefit relative to oral administration.

[2] = tested on: progesterone-induced endometrial proliferation; assay: Anti-Clauberg study, subcutaneous versus oral; format: in vivo, rabbits
From the text: FIG. 3 illustrates a comparison of the inhibition of progesterone-induced endometrial proliferation in estradiol-primed immature rabbits following subcutaneous injection and oral administration of CDB-4124.
To determine whether the low circulating levels of CDB-4124 when administered locally could have any impact predictive of efficacy, an anti-Clauberg study was run in which immature estradiol-primed rabbits were coadministered progesterone and various doses of CDB-4124 by either subcutaneous or oral administration. At least 3 different highly trained individuals evaluated the rabbit uterus for glandular growth, for complexity and overall progesterone-induced “development”. The inhibition (by percentage) of progesterone-induced endometrial proliferation at each dose was assayed. […] However, maximal inhibition required a ˜8-fold increase in dosage when administered orally (i.e. 8 mg/kg). Importantly 8 mg/kg corresponds closely to the 50 mg/day dose of CDB-4124 administered to the female subjects described in Example 3.

[3] = Pharmacokinetic analysis of vaginal administration of 12 mg CDB-4124; format: in vivo, human
Description: (§2) In an oral study, doses of 1, 3, 6, 9 and 12 mg of CDB-4124 were administered for a period of 10 weeks. […] Cessation of menses directly correlated to efficacy of an oral dose in both uterine fibroids and endometriosis.
Thus, the onset of amenorrhea is delayed when the drug is administered vaginally, necessitating that the drug be vaginally administered during subsequent menstruations, which tends to reduce absorption of the drug and is unpleasant and technically challenging for the patient. The methods of the present invention provide a solution to this problem by providing a brief period of oral administration, preceding and overlapping vaginal administration, which expedites the onset of amenorrhea while retaining the benefits of vaginal administration.

[4] = Oral versus vaginal pharmacokinetics in beagles (25 mg); format: in vivo; conditions: for metabolism after oral administration: oral micronized powder; for metabolism after vaginal administration / peak plasma concentration (Cmax): vaginal suppository
Description: FIG. 1 illustrates a comparison of the Cmax (peak serum concentration) and area under the curve (AUC) following oral and vaginal administration of CDB-4124 or CDB-4453 at a 25 mg dose in beagles.
Beagles were administered 25 mg of CDB-4124 or CDB-4453 (the monodemethylated metabolite of CDB-4124) formulated as either a micronized powder or a vaginal suppository.

uterine fibroids = assay: Single blind study of vaginal CDB-4124 in females with uterine fibroids; format: in vivo, human; conditions: vaginal 12 mg daily
Description: Seven human females with uterine fibroids have completed 4 months of treatment as part of a single blind study. These females were vaginally administered a daily dose of 12 mg CDB-4124 for a period of four months, with dosing initiated during the luteal phase of the females' menstrual cycles. At the end of the four month treatment period, all seven females stopped menstruating and all reported a Pictural Blood Loss Assessment Chart (PBAC) score of 0 (p=0.002). A statistically significant and highly clinically meaningful reduction in Uterine Fibroid Symptom Quality of Life Survey (UFSQOL) scores was also observed. The mean UFSQOL score at baseline was 43.8 and at the end of the four month treatment period the mean score was 1.33 (p=0.001). […] As a reference, women with fibroids typically score 40 or higher, whereas women without fibroids report scores of approximately 20.
Change in fibroid volume at the end of the four month treatment period determined by magnetic resonance imagining (MRI) was assessed and a statistically significant (chi square analysis) median reduction of total fibroid volume of 36% was observed.

[5] = tested on: primary cultures of human and animal hepatocytes; assay: Metabolism in primary cultures of hepatocytes; format: in vitro ADME; conditions: primary hepatocyte cultures
[6] = tested on: DMBA-induced breast tumors; assay: DMBA-induced breast tumor model, subcutaneous injection; format: in vivo, rodents
Description: Pre-clinical studies were performed on rodents with breast tumors induced by 7,12-Dimethylbenz(a)anthracene (DMBA).

[7] = Clinical trials of daily oral Proellex (CDB-4124): liver toxicity / liver enzymes; format: in vivo, human; conditions: for subjects with liver enzyme elevations reported as SAEs: of seven SAEs
Description: as §1
To date, over 600 patients, including women with confirmed cases of endometriosis or uterine fibroids, have participated in double blind and open label clinical trials in which patients were administered daily oral capsules containing doses of 12.5 mg, 25 mg or 50 mg CDB-4124 (Proellex) for over one month. Of these patients, about 500 received Proellex and about 130 received a placebo. Of the patients receiving Proellex, about 190 received a dose of 50 mg CDB-4124 per day, about 260 received a dose of 25 mg CDB-4124 per day and about 55 received a dose of 12.5 mg per day.
Liver enzymes were frequently monitored in participating subjects. The liver enzyme level at which the clinical trials would be discontinued was set at an increase in liver aminotransferases greater than, or equal to three times the Upper Limit of Normal (≧3×ULN).
Of the nine subjects with a confirmed increase in liver enzymes ≧3×ULN, seven were severe enough elevations to be reported to the FDA as SAEs. One of these seven subjects had been receiving a dose of 25 mg CDB-4124 per day; the remaining six subjects had been receiving a dose of 50 mg CDB-4124 per day. Liver enzymes ≧3×ULN persisted in five of the nine subjects with a confirmed increase in liver enzymes ≧3×ULN. These five subjects had previously been dosed with the 50 mg dose. One of these subjects is receiving oral medication for treatment of their liver condition. Clinical trials involving CDB-4124 at all doses were voluntarily suspended as a result of these SAEs and were subsequently placed on clinical hold by the United States Food and Drug Administration for safety reasons.

[8] = Oral study, 1-12 mg CDB-4124 for 10 weeks; format: in vivo
Description: as §2

[9] = tested on: hypothalamic pituitary axis (HPA); assay: Low-dose oral CDB-4124: effect on ovulation; format: in vivo; conditions: about 3-25 mg
From the text: Contemporaneous systemic and local administration of antiprogestins to treat hormonally responsive breast cancer (i.e. the breast tumor contains estrogen and/or progesterone receptor) has advantages as well.

[10] = tested on: progesterone-induced endometrial proliferation; assay: Anti-Clauberg study, vaginal versus oral (McPhail index); format: in vivo, rabbits
Description: FIG. 4 compares the antiprogestational effects of three doses of CDB-4124 when delivered orally versus when delivered to the vaginal mucosa of estradiol-primed immature rabbits in the presence of progesterone, as measured by a decrease in the McPhail index. Treatment with progesterone alone (vehicle control) provided a baseline measurement of progestational activity.
Another anti-Clauberg study was run in which immature estradiol-primed rabbits were administered progesterone alone (vehicle control) or were coadministered progesterone and three doses of CDB-4124 by either vaginal or oral administration. The inhibition of progesterone-induced endometrial proliferation at each dose was assayed. FIG. 3 illustrates the decrease in the McPhail index following increasing doses of CDB-4124 administered by either route. Maximal inhibition (i.e. a decrease in the McPhail index to 1.5) occurred at 0.2 mg/kg CDB-4124 when administered vaginally, compared to 0.8 mg/kg when administered orally.

[11] = Cmax after vaginal administration in beagles extrapolated to humans; format: in vivo; conditions: for predicted Cmax for vaginal administration as percentage of the same oral dose: humans, extrapolated from beagles
Description: FIG. 2 illustrates the actual Cmax observed for Proellex (CDB-4124) and its monodemethylated metabolite CDB-4453, following oral administration of CDB-4124 at 12.5 mg, 25 mg and 50 mg doses as well as the projected Cmax for 3 mg, 6 mg and 9 mg doses. FIG. 2 also illustrates the actual Cmax observed for Proellex (CDB-4124) and its monodemethylated metabolite CDB-4453, following vaginal administration of CDB-4124 at 12.5 mg, 25 mg and 50 mg doses.
The maximum circulating concentrations (Cmax) of CDB-4124 obtained following vaginal administration to beagles were extrapolated to humans for the 12.5 mg, 25 mg and 50 mg doses actually administered during the Phase III clinical studies.
For example, equivalent antiprogestational activity at the uterus is observed for a 50 mg oral dose of CDB-4124 and a 12.5 mg vaginal dose; however, the Cmax observed with a 12.5 mg vaginal dose is only 2% that observed with a 50 mg oral dose. […] Because a high concentration of the drug in the systemic circulation (and associated first pass metabolism of the drug) is not reached by local administration, avoidance of the severe liver toxicity observed in a small percentage of subjects following oral administration of CDB-4124 in previous Phase III clinical studies at doses of 25 and 50 mg is a surprising advantage of administering the drug locally. Similar advantages should inure to local administration of other antiprogestins.

## COCC(=O)[C@@]1(OC(C)=O)CC[C@H]2[C@@H]3CCC4=CC(=O)CCC4=C3[C@@H](c3ccc(N(C)C)cc3)C[C@@]21C [CDB-4124, 21-methoxy-17α-acetoxy-11β-(4 N, N-dimethylaminophenyl)-19-norpregna-4,9-diene-3,20-dione]
[1]; following oral administration
  Tmax: 1 to 2 h
[1]
  maximum concentration for the 12.5 mg dose as percentage of the 50 mg dose: 25%
[2]; oral
  dose giving maximal inhibition of progesterone-induced endometrial proliferation: 8 mg/kg
[2]; rabbit, in vivo
  increase in dosage required for maximal inhibition, oral vs. subcutaneous: ~8 fold
[2]; subcutaneous
  dose giving maximal inhibition of progesterone-induced endometrial proliferation: less than 1 mg/kg
[3]; vaginal 12 mg
  maximum exposure (Cmax) relative to a 50 mg oral dose: about 1/100
  systemic exposure (AUC) relative to an equivalent oral dose: about ⅙
[3]; vaginal administration
  build-up of drug concentration, vaginal relative to oral: build slowly
[4]
  systemic exposure (AUC), vaginal vs. oral: much lower when administered locally
  metabolism after oral administration: rapidly metabolized
  metabolism after vaginal administration: metabolized slowly
  peak plasma concentration (Cmax): relatively low
Uterine fibroids; end of four months
  median reduction of total fibroid volume (MRI): 36%
Uterine fibroids; end of four months, p=0.002
  Pictural Blood Loss Assessment Chart (PBAC) score: 0
Uterine fibroids; end of four months, seven females
  females who stopped menstruating: seven
Uterine fibroids; end of four months, baseline 43.8, p=0.001
  mean Uterine Fibroid Symptom Quality of Life Survey (UFSQOL) score: 1.33
Uterine fibroids; four months, of seven
  females no longer experiencing any fibroid related symptoms: six
[5]
  formation of mono-demethylated metabolite: rapidly produce the mono-demethylated metabolite
[6]
  effect on quantity and size of DMBA-induced breast tumors: effective in reducing the quantity and size of DMBA-induced breast tumors
[7]; 12.5 mg
  adverse liver toxicity signals: no adverse liver toxicity signals different from placebo
[7]; 25 mg per day
  subjects with liver enzyme elevations reported as SAEs: One
[7]; 25 mg/day
  frequency and intensity of liver effects relative to 50 mg/day: significantly lower in frequency and intensity
[7]; 50 mg dose, of nine confirmed
  subjects in whom liver enzymes ≧3×ULN persisted: five
[7]; 50 mg per day
  subjects with liver enzyme elevations reported as SAEs: six
[7]; 50 mg/day
  women exhibiting severe liver toxicity: 3-4%
[7]; all doses (12.5, 25, 50 mg/day), confirmed by repeat test in 48 hours
  subjects with confirmed increase in liver enzymes ≧3×ULN: nine
[8]; oral
  lowest dose inducing reliable cessation of menses: 3 mg
[8]; oral 1, 3, 6, 9 and 12 mg
  tolerability: well tolerated
[9]
  suppression of ovulation: partially but not completely suppress ovulation
[10]; 0.2 mg/kg vaginal or 0.8 mg/kg oral
  McPhail index at maximal inhibition: 1.5
[10]; oral
  dose giving maximal inhibition (decrease in McPhail index): 0.8 mg/kg
[10]; rabbit, in vivo, po
  antiprogestational activity of vaginal delivery relative to the same oral dose: four
[10]; vaginal
  dose giving maximal inhibition (decrease in McPhail index): 0.2 mg/kg
[11]; 12.5 mg dose
  predicted Cmax for vaginal administration as percentage of the same oral dose: approximately 6.5%
[11]; 50 mg dose
  predicted Cmax for vaginal administration as percentage of the same oral dose: approximately 2%
[11]; in vivo, po
  Cmax with a 12.5 mg vaginal dose as percentage of a 50 mg oral dose: 2%

## CNc1ccc([C@H]2C[C@@]3(C)[C@@H](CC[C@]3(OC(C)=O)C(=O)COC)[C@@H]3CCC4=CC(=O)CCC4=C32)cc1 [CDB-4453, 21-methoxy-17α-acetoxy-11β-(4-N-methylaminophenyl)-19-norpregna-4,9-diene-3,20-dione]
[1]
  maximum concentration for the 12.5 mg dose as percentage of the 50 mg dose: 25%
[4]
  systemic exposure (AUC), vaginal vs. oral: much lower when administered locally
  metabolism after oral administration: rapidly metabolized
  metabolism after vaginal administration: metabolized slowly
  peak plasma concentration (Cmax): relatively low
